Results on one compound are retold here after patent US9403846B2, “Carbocyclic- and heterocyclic-substituted hexahydropyrano[3,4-d][1,3]thiazin-2-amine compounds” (Pfizer Inc., priority 2012, dated 2016).

Counter-ions that a name gives are not always drawn.

In one test the target is BACE1 enzyme (Homo sapiens (Human), UniProt P56817). As to the kind of experiment: BACE1 Cell-Free Assay (fluorescence polarization).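 Note: Affinity-purified soluble BACE1 from transfected CHO-K1 cells cleaving a biotinylated, Oregon Green-labelled synthetic APP peptide, 3 h at 37 °C, cleavage followed by fluorescence polarization change.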 The settings on record: geometric mean of 2-3 determinations (Ex. 2: ≧6 determinations). It counts as biochemical. For orientation: In fluorescence polarisation assays a small probe gives low polarisation when free and higher when bound to something large.

The subject of test [1] is sAPPβ levels in H4 human neuroglioma cells over-expressing the wild-type human APP695. As to the kind of experiment: Whole Cell Assay (In Vitro sAPPb Assay). The settings on record: Homo sapiens, 18 hours, geometric mean of 2-3 determinations (Ex. 2: ≧6 determinations). The test is classed as cell-based.
For the next test, the target named is BACE2 enzyme (Homo sapiens (Human), UniProt Q9Y5Z0). As to the kind of experiment: BACE2 Assay (cell-free, fluorescence polarization). It counts as biochemical. Particulars: single determination. As to the method:
This assay measures the inhibition of the BACE2 enzyme as it cleaves a non-native peptide. A synthetic substrate that can be cleaved by BACE2 having N-terminal biotin and made fluorescent by the covalent attachment of Oregon Green at the Cys residue is used to assay BACE2 activity in the presence or absence of the inhibitory compounds. The substrate is Biotin-[…]-C(Oregon green)-KK-OH. The BACE2 enzyme is available from Enzo Life Sciences (Cat # BML-SE550). Compounds are incubated in a ½ log dose response curve from a top concentration of 100 μM with BACE2 enzyme and the biotinylated fluorescent peptide in 384-well black plates (Thermo Scientific #4318). BACE2 is at a final concentration of 2.5 nM with a final concentration of peptide substrate of 150 nM in a reaction volume of 30 μL assay buffer (100 mM sodium acetate, pH 4.5 (brought to pH with acetic acid), and 0.001% Tween-20). Plates are covered and incubated for 3 hours at 37° C. The reaction is stopped with the addition of 30 μL of 1.5 μM Streptavidin (Pierce, #21125). After a 10 minute incubation at room temperature, plates are read on a PerkinElmer EnVision for fluorescence polarization (Ex485 nm/Em530 nm). The activity of the beta-secretase enzyme is detected by changes in the fluorescence polarization that occur when the substrate is cleaved by the enzyme.

Sequence of BACE1 enzyme (P56817 46-457): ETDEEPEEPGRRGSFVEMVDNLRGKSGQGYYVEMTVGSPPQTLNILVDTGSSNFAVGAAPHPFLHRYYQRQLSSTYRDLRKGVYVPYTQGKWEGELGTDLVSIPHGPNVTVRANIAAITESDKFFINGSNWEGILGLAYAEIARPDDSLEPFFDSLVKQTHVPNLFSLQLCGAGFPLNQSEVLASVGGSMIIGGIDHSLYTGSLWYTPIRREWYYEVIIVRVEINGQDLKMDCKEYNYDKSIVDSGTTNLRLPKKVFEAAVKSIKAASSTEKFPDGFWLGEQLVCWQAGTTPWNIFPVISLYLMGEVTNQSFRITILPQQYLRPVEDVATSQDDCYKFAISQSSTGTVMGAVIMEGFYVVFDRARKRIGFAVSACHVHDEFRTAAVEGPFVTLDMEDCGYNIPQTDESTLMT
Sequence of BACE2 enzyme (Q9Y5Z0 63-518): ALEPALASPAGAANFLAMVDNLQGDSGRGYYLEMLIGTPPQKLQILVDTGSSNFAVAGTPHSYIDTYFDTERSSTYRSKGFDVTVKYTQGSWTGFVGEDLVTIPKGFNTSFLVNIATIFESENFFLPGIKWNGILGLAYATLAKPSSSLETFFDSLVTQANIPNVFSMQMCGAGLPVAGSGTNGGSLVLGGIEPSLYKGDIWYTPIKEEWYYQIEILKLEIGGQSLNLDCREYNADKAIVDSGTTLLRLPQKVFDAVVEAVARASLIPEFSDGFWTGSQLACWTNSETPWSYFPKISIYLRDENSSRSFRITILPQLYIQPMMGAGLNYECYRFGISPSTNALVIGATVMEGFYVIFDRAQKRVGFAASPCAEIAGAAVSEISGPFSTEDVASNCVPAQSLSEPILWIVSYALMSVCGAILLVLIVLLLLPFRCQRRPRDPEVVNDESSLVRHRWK

Broadly, the IC50 is the concentration at which inhibition is half-maximal. Read a low IC50 as greater potency. Regarding `NC1=N[C@@]2(c3ccc(F)cc3F)CO[C@@H](C3CCCO3)C[C@H]2CS1` (stereo partly drawn) [Example 1, (4aR,6R,8aS)-8a-(2,4-Difluorophenyl)-6-(tetrahydrofuran-2-yl)-4,4a,5,6,8,8a-hexahydropyrano[3,4-d][1,3]thiazin-2-amine, trifluoroacetate salt], the IC50 turned out to be 0.447 µM at BACE1 enzyme, 0.0738 µM in test [1] and 1.29 µM against BACE2 enzyme.
